Results from patent publication US7799933B2, “Sulfonamide derivatives” (Hoffman-La Roche Inc., priority 2006, dated 2010).

Molecular target: T1, L-CPT1 (human liver CPT1) (Homo sapiens, UniProt P50416)
T1 construct: made in house; host or cells: Pichia pastoris strain X-33 (pGAPZB/pGAPZA plasmids); crude cell-free extracts
T1 sequence (P50416 1-773): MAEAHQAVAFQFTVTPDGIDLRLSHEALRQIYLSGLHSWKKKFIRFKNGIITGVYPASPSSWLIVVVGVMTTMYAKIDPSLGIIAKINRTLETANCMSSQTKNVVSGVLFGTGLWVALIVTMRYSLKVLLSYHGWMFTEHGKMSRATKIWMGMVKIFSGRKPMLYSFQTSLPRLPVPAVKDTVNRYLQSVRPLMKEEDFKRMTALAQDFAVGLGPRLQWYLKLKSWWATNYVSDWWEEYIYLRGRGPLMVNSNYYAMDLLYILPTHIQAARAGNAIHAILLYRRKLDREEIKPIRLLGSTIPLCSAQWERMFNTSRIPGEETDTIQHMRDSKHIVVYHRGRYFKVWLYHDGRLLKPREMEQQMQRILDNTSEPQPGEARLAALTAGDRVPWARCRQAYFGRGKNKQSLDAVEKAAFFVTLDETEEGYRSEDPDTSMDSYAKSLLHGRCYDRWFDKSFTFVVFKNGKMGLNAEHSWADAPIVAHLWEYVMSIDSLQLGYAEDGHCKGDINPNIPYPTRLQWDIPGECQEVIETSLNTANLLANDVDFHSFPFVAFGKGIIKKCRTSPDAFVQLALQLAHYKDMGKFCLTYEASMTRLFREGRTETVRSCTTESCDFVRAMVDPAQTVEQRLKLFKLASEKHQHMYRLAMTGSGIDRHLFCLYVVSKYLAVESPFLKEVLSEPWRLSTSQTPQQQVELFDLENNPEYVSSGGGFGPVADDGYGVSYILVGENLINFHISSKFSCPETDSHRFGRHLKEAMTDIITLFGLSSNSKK
Assay: L-CPT1 inhibition, spectrophotometric CPT activity assay with DTNB (Ellman's reagent)
Type: biochemical
Settings: human liver CPT1 expressed in P. pastoris, cell extracts; carnitine 500 μM, palmitoyl-CoA 80 μM, DTNB 300 μM, pH 7.4
Experimental: Human liver and muscle CPT1 cDNAs and rat CPT2 cDNA were subcloned in pGAPZB or pGAPZA, respectively. These plasmids were used to transform P. pastoris strain X-33 via electroporation after the preparation of electrocompetent cells. High copy number clones were selected where necessary using 0.5 or 1 mg/ml Zeocin. Cultures for activity measurements were induced for 16 h in YPD medium (1% yeast extract, 2% peptone, 2% glucose). Crude cell extracts were prepared by disrupting the cells with glass beads or French Press, depending on fermenter sizes. After centrifugation, the cell-free extracts were resuspended in cell breaking buffer (50 mM Tris, pH 7.4, 100 mM KCl, 1 mM EDTA) in the presence of a protease inhibitor cocktail, before aliquoting and freezing at −20° C.
CPT activity was measured using a spectrophotometric assay using 5,5′-dithio-bis-(2-nitrobenzoic acid) (DTNB) also called Ellman's reagent. […] The assay buffer contained 120 mM KCl, 25 mM Tris, pH 7.4, 1 mM EDTA.

Work on `O=C(O)Cc1ccc(NC(=O)c2ccc3c(c2)N(S(=O)(=O)c2cccc(Cl)c2)CC3)cc1` [Example 7, (4-{[1-(3-Chloro-benzenesulfonyl)-2,3-dihydro-1H-indole-6-carbonyl]-amino}-phenyl)-acetic acid] yielded an IC50 of 125 nM.

`COc1ccc(Cl)cc1S(=O)(=O)N1CCc2c(C)cc(C(=O)Nc3ccc(CC(=O)O)cc3)cc21` [Example 14, (4-{[1-(5-Chloro-2-methoxy-benzenesulfonyl)-4-methyl-2,3-dihydro-1H-indole-6-carbonyl]-amino}-phenyl)-acetic acid] showed an IC50 of 210 nM.
